{"source": "patent US9884056B2", "about": "“Oral pharmaceutical dosage forms” (Durect Corporation, priority 2008, dated 2018)", "key": {"[1]": {"details": "after an IV dose, PET; cited from earlier work"}, "[2]": {"assay": "In vitro volatilization test", "format": "physicochemical", "details": "40 mg in petri dish on hot plate", "from_the_text": "In order to further assess the abuse-resistance performance of abuse-resistant dosage forms produced according to the present invention, the following in vitro volatilization test was developed. In particular, intentional abuse of controlled release pharmaceutical dosage forms may alternatively be carried out by volatilization (smoking, or free-basing) techniques that can liberate active agent (in immediately active form) from commercially available controlled release carrier systems. Accordingly, a preliminary in vitro volatilization test was developed in order to assess: (1) whether a free base form of an active agent (in this case, oxycodone) was more volatile than the salt (HCl) form; and (2) whether abuse-resistant dosage forms produced according to the instant invention can prevent inhalation abuse through volatilization.\nEach petri dish was fitted with a watch glass as a cover, and the covered test dishes were placed on a hot plate (setting 10). After 30 seconds each watch glass was replaced with a fresh watch glass, and this step was repeated three times (to obtain 4 time points). Any residue deposited on the bottom side of the test watch glasses was carefully transferred with an Alpha Swab (TX 761) into 40/60 ethanol/0.005M HCl solution, and the concentration of oxycodone solution was determined by HPLC. The observations taken during the test were as follows. […]"}, "[3]": {"details": "cited from earlier work"}}, "data": [{"smiles": "COC(=O)C(c1ccccc1)C1CCCCN1", "note": "(centres unmarked) [^11C-labeled methylphenidate]", "values": [{"measurement": "brain clearance half life", "setting": "[1]", "result": 1.5, "unit": "h"}, {"measurement": "brain uptake Tmax", "setting": "[1]", "result": "< 0.167", "unit": "h"}]}, {"smiles": "COc1ccc2c3c1O[C@H]1C(=O)CC[C@@]4(O)[C@@H](C2)N(C)CC[C@]314.Cl", "note": "[oxycodone HCl]", "values": [{"measurement": "observation upon heating in volatilization test", "setting": "[2]", "result": "extensive degradation and charring"}]}, {"smiles": "COc1ccc2c3c1O[C@H]1C(=O)CC[C@@]4(O)[C@@H](C2)N(C)CC[C@]314", "note": "[oxycodone free base form, oxycodone]", "values": [{"measurement": "observation upon heating in volatilization test", "setting": "[2]", "result": "vaporizes/sublimes upon heating"}]}, {"smiles": "COC(=O)C(c1ccccc1)C1CCCCN1", "note": "(racemic) [methylphenidate, dl-threo-methyl-2-phenyl-2-(2-piperidyl) acetate]", "values": [{"measurement": "dose deesterified to the inactive major metabolite, ritalinic acid", "setting": "[3]; excreted in the urine", "result": "About 70%"}, {"measurement": "Tmax following oral administration (mean)", "setting": "[3]; immediate release, oral", "result": 1.5, "unit": "h"}, {"measurement": "d-threo to l-threo plasma concentration ratio", "setting": "[3]; in vivo", "result": "~10:1"}, {"measurement": "systemic half-life", "setting": "[3]; in vivo", "result": "approximately 3 hours"}]}]}
